Laboratory results as given in BindingDB's records for doi:10.1016/j.bioorg.2015.01.005 (Kurukshetra University, 2015).

Columns and labels:
Cathepsin B = Cathepsin B (Capra hircus, UniProt H9B8T9); test: Cathepsin Ezyme Assay; settings: pH 6
Procedure: (§1) Cathepsin B and H were first activated in the presence of thiol activators at pH 6.0 and pH 7.0, respectively. Then, 15 µL of the enzyme solution was mixed with 940 µL of 0.1 M sodium phosphate buffer containing 1 mM EDTA separately, for 10 min at 37 °C. […] After 30 min, 25 µL of 100 mM substance stock solution was added to start the reaction.

Cathepsin H = target: T1, Cathepsin H (Capra hircus, UniProt A0A060INS8); test: Cathepsin Ezyme Assay; settings: pH 6
T1 sequence (A0A060INS8 whole entry): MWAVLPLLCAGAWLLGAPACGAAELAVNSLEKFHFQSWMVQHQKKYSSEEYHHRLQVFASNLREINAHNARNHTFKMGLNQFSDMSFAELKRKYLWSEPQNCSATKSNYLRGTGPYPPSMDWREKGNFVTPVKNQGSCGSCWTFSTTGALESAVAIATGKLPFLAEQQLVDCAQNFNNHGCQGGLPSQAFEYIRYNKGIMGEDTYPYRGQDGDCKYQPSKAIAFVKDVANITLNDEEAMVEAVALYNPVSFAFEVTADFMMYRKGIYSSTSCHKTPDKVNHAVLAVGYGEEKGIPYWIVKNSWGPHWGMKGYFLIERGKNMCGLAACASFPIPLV
Procedure: as §1

Row | Ki (Cathepsin B) [µM] | Ki (Cathepsin H) [µM] | Structure (SMILES)
1 | 52.6 | 2.5 | Cc1ccc(C2NC(=O)c3ccccc3N2)cc1 (centres undefined) [2-(4-Methylphenyl)-2,3-dihydroquinazolin-4(1H)-one (1c)]
2 | 0.041 | 23.3 | O=C1NC(c2ccc(Cl)cc2)Nc2ccccc21 (centres undefined) [2-(4-Chlorophenyl)-2,3-dihydroquinazolin-4(1H)-one (1e)]
3 | 1.57 | 10.4 | O=C1NC(c2ccc([N+](=O)[O-])cc2)Nc2ccccc21 (centres undefined) [2-(4-Nitrophenyl)-2,3-dihydroquinazolin-4(1H)-one (1b)]
4 | 0.0064 | 8.18 | O=C1NC(c2ccc(F)cc2)Nc2ccccc21 (centres undefined) [2-(4-Fluorophenyl)-2,3-dihydroquinazolin-4(1H)-one (1f)]

More lines, now with the values behind:

Row | Structure (SMILES) | Ki (Cathepsin B) [µM] | Ki (Cathepsin H) [µM]
5 | CN(C)c1ccc(C2NC(=O)c3ccccc3N2)cc1 (centres undefined) [2-(4-(Dimethylamino)phenyl)-2,3-dihydroquinazolin-4(1H)-one (1h)] | 10.6 | 18.6
6 | COc1ccc(C2NC(=O)c3ccccc3N2)cc1 (centres undefined) [2-(4-Methoxyphenyl)-2,3-dihydroquinazolin-4(1H)-one (1d)] | 2.81 | 56.8
7 | O=C1NC(c2ccc(Br)cc2)Nc2ccccc21 (centres undefined) | 32.5 | 52.6
